We go through one compound from patent US12594278B2, “Method for treatment of muscular dystrophy” (CHILDREN'S NATIONAL MEDICAL CENTER, priority 2019, dated 2026).

This test deals with B6A/J mice. Put plainly: 10-week batimastat treatment of 12Mo B6A/J mice, gastrocnemius histopathology. The test is classed as in vivo, mouse. On the procedure: Whether this effect of batimastat to repress FAP adipogenesis can improve muscle histopathology was tested in vivo. 12Mo B6A/J mice were treated for 10 weeks with batimastat (2 mg/kg i.p. 3× weekly). […] To determine if this reduction in adipogenic replacement was due to an effect on just FAP differentiation or also on FAP proliferation, FAP accumulation was quantified by PDGFRα labeling and no effect of batimastat treatment on FAP number was found (FIG. 12). […] Thus, inhibition of adipogenesis by batimastat is not due to reduced FAP numbers or improved myofiber repair. To further confirm the ability of batimastat to prevent dysferlinopathic muscle from injury-triggered FAP adipogenesis, we employed the repeat notexin-induced TA injury approach which induces significant adipogenic replacement of the muscle (FIG. 6D and FIG. 6E). […] Given that FAP numbers are unaffected by batimastat treatment, it was examined whether these batimastat treatment causes cells to adopt a fibrogenic fate by blocking their adipogenic differentiation. However, no change in intra-muscular fibrosis was observed as a result of batimastat treatment in either the gastrocnemius or injured TA (FIG. 12). Taken together, the above results both confirm the essential nature of FAP adipogenesis for the adipogenic conversion of dysferlinopathic muscle, and highlight the potential of batimastat to arrest the progressive and even late stage adipogenic replacement of dysferlinopathic muscle.
Immunohistochemical Analysis of Muscle Sections. Frozen sections 8 μm thick were cut from human biopsies and the midbelly of mouse muscles. Lipid was visualized using an Oil Red O staining kit (American MasterTech, #KTORO) according to manufacturer's instructions. […]
Microscopy and Image Analysis. […] Perilipin-1 quantification was performed by thresholding the image to exclude non-specific staining and then calculating the area of each lipid deposit encircled by perlipin-1 (excluding those in the epi- or perimysium) using MetaMorph software (Molecular Devices). The total area encircled by perilipin-1 was calculated for all lipid deposits across the muscle and expressed relative to the total cross-sectional area. PDGFRα and AnxA2 positive area was calculated using CellSens software (Olympus) by thresholding to remove non-specific staining and calculating the total positive area (again, excluding any epi- or perimysial staining) relative to the entire muscle cross-section.
For in vivo studies, 12Mo B6A/J mice were treated thrice weekly with batimastat (Sigma-Aldridge, #SML0041), 2 mg/kg i.p. for 10 weeks. At the end of the treatment period, the effect of batimastat on disease pathology was evaluated by quantification of perilipin-1 marked lipid area in the gastrocnemius and compared to untreated controls. […]

[1] abbreviates: 12Mo B6A/J mice, 2 mg/kg i.p. 3× weekly for 10 weeks.

For the compound `CNC(=O)[C@H](Cc1ccccc1)NC(=O)[C@H](CC(C)C)[C@H](CSc1cccs1)C(=O)NO` [batimastat], under setting [1], the “FAP number (PDGFRα labeling) in gastrocnemius” value is listed as “no effect” and the “extent of myofiber central nucleation” value is given as “did not decrease”. Further, under “12Mo B6A/J mice, 2 mg/kg i.p. 3× weekly for 10 weeks, vs untreated mice”, the “perilipin-1 labeled area in gastrocnemius” value was “significantly reduced”. Also, where the note is “batimastat 2 mg/kg i.p. 3× weekly for 10 weeks”, the “intra-muscular fibrosis in gastrocnemius (Masson's trichrome)” value is “no change”.
